Literature values in patent publication US11278512B2, “Compositions comprising a metal and L-serine, and uses thereof” (Brain Chemistry Labs, priority 2019, dated 2022).

Columns and labels:
[1] = tested on: neurofibrillary tangles (NFTs) and β-amyloid plaques
[2] = set-up: reduction in ALSFRS (Amyotrophic Lateral Sclerosis Functional Rating Scale): dose or concentration left out as unconfirmed

| SMILES | misincorporation of BMAA into human neuroproteins; protein misfolding, aggregation and apoptosis induced by BMAA (human neuroproteins) | BMAA-induced microglial activation and proteinopathies along the spine, including deposition of TDP-43 and FUS ([1]; BMAA-induced) | density of neurofibrillary tangles (NFTs) and β-amyloid plaques in the brain ([1]; non-human primates) | reduction in ALSFRS (Amyotrophic Lateral Sclerosis Functional Rating Scale) ([2]; daily dosing with for three months, approximates the reduction achieved by Riluzole) [%] | safety when administered to ALS patients ([2]; up to 90 mg/day) |
| --- | --- | --- | --- | --- | --- |
| N[C@@H](CO)C(=O)O [L-serine] | blocks misincorporation | blocks | decreases the density |  |  |
| [Zn] [Zinc, zinc] |  |  |  | ~30 | safe |
